PMC6112376, “Comprehensive Analyses and Prioritization of Tox21 10K Chemicals Affecting Mitochondrial Function by in-Depth Mechanistic Studies” (Environmental Health Perspectives, 2018)
Read-outs that look alike come from different tables or passages of the source.

Tests used:
[1] = system: HeLa cells expressing YFP-Parkin; test: Parkin translocation assay; format: cell-based, human
hNSC = test: MMP assay in human neural stem cells (hNSC); format: cell-based; details: mean±SD of three experiments
[2] = biological target: T1, mitochondrial respiratory chain complex II (Rattus norvegicus, UniProt P21913+Q641Z9+Q6PCT8+Q920L2); test: Respiratory chain complex II activity; format: biochemical; details: tested up to 100μM
T1 construct: Submitochondrial particles were prepared by subjecting the intact rat mitochondria, isolated as described above, to three successive freeze–thaw cycles; from tissue; host or cells: rat liver mitochondria (submitochondrial particles)
T1 sequence (Q920L2 35-656): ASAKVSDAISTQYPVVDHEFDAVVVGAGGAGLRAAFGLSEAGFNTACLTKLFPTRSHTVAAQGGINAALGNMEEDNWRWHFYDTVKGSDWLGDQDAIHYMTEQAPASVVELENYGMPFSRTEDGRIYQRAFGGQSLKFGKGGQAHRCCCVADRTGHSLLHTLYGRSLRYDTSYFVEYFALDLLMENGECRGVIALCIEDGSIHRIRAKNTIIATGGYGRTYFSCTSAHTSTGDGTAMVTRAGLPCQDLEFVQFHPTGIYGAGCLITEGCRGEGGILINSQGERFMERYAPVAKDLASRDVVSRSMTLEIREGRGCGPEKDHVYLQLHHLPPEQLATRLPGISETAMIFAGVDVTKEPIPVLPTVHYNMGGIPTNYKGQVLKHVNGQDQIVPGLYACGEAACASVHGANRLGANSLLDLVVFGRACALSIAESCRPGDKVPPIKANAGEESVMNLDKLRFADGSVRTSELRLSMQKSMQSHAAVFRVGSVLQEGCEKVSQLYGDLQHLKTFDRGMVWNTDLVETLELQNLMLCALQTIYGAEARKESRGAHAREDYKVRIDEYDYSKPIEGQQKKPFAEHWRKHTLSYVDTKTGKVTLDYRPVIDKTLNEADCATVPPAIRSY
T1 sequence (P21913 31-282): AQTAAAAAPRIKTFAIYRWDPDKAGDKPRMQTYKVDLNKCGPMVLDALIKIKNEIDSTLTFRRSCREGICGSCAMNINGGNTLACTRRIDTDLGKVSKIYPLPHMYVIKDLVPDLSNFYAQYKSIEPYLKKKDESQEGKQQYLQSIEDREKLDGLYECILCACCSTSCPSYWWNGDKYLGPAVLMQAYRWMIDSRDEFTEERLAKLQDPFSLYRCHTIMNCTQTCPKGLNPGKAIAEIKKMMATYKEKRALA
T1 sequence (Q641Z9 1-169): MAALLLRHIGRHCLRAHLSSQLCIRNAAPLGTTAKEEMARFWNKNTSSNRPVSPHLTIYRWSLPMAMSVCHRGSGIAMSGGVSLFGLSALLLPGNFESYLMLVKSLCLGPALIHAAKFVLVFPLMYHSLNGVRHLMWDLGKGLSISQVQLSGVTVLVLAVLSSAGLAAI
T1 sequence (Q6PCT8 57-159): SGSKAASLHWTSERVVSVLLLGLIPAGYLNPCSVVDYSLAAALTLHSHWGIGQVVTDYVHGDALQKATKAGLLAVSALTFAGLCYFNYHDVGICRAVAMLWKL

HepG2 cells [3] = system: HepG2 cells
[4] = system: mitochondrial respiratory chain complex III; format: biochemical, rat
[5] = system: Nrf2/ARE (ARE-bla HepG2 cells); test: ARE β-lactamase reporter gene assay; format: cell-based, human
[6] = system: mitochondrial respiratory chain complex I; format: biochemical, rat
rat primary hepatocytes = test: MMP assay in rat primary hepatocytes
[7] = system: Caenorhabditis elegans (Bristol N2); test: C. elegans larval development and growth assay
[8] = system: mitochondrial respiratory chain complex IV; format: biochemical, rat
HepG2 cells [9] = test: ROS-Glo hydrogen peroxide (ROS) assay; format: cell-based, human; details: 2 h treatment; mean±SD of three experiments
[10] = system: p53 (p53-bla HCT-116 cells); test: p53 β-lactamase reporter gene assay; format: cell-based, human; details: 16 h incubation; mean±SD of three experiments
[11] = system: mitochondrial respiratory chain complex V; format: biochemical, rat
[12] = system: Caenorhabditis elegans strain PE255; test: In vivo C. elegans ATP status assay
HepG2 cells [13] = test: Oxygen consumption, Seahorse XF24 analyzer; format: cell-based, human
HepG2 cells [14] = details: cited from earlier work
[15] = system: isolated rat liver mitochondria; test: Oxygen consumption, Clark-type oxygen electrode; format: biochemical; details: for I-ADP, % of control (O2 consumption rate): glutamate/malate driven state 3 respiration; for I-ADP, % of control (O2 consumption rate) / I-sub, % of control (O2 consumption rate) / II-ADP, % of control (O2 consumption rate) / II-sub, % of control (O2 consumption rate): isolated rat liver mitochondria; for I-sub, % of control (O2 consumption rate): glutamate/malate driven state 4 respiration; for II-ADP, % of control (O2 consumption rate): succinate-driven state 3 respiration; for II-sub, % of control (O2 consumption rate): succinate-driven state 4 respiration
HepG2 cells [16] = test: Intracellular ATP content (cell viability) assay; format: cell-based, human; details: for IC50: 40 h treatment, mean±SD of three experiments

CCN1C(=CC=Cc2ccc3ccccc3[n+]2CC)C=Cc2ccccc21.[Cl-] [Pinacyanol chloride]
Parkin translocation into mitochondria (in words) ([1]; 3 h): patterns similar to antimycin A and FCCP
Parkin recruitment ([1]; HeLa cells stably expressing YFP-Parkin, treated for 2 h): Active
IC50 (hNSC; 1 h treatment, fresh re-sourced stocks, read-out: hNSC IC50 (MMP)): 40 ± 10 nM
hNSC (efficacy) (MMP) (hNSC; % of positive control): −97.1±7.31%
Complex II % inhibition (activity call) [2]: Inactive
HepG2 (efficacy) Glucose (MMP) (HepG2 cells [3]; 5 mM glucose, % of positive control, mean±SD of three experiments): −85.9±3.17%
HepG2 (efficacy) Galactose (MMP) (HepG2 cells [3]; 10 mM galactose, % of positive control, mean±SD of three experiments): −78.9±0.48%
MMP assays efficacy (%) HepG2 (HepG2 cells [3]; HepG2 cells, single number from one experiment): -89%
IC50 (HepG2 cells [3]; read-out: HepG2 IC50 Galactose (MMP), 10 mM galactose, no glucose, 1 h treatment, mean±SD of three experiments): 0.06 ± 0.02 µM
IC50 (HepG2 cells [3]; read-out: HepG2 IC50 Glucose (MMP), 5 mM glucose, 1 h treatment, fresh re-sourced stocks, mean±SD of three experiments): 0.04 ± 0.01 µM
IC50 (HepG2 cells [3]; read-out: IC50 in HepG2 cells (MMP, tier-one retest), existing Tox21 10K library stock solutions, Excel Table S1): 0.02 µM
IC50 (HepG2 cells [3]; read-out: MMP assays IC50 (µM) HepG2, HepG2 cells, single number from one experiment): 0.0155 µM
Complex III % inhibition (activity call) [4]: Inactive
EC50 ([5]; 16 h incubation, mean±SD of three experiments, read-out: ARE (HepG2) EC50): 1390 ± 950 nM
ARE (HepG2) (efficacy) ([5]; % of positive control): 62.8±13.4%
inhibition effect on Complex I ([6]; at 4.0μM): 23.6%
Complex I % inhibition ([6]; at 20μM): 38.3±1.92 at 20μM %
Rat hepatocytes (efficacy) (MMP) (rat primary hepatocytes; % of positive control, mean±SD of three experiments): −75.4±6.24%
MMP assays efficacy (%) Rat Hepatocytes (rat primary hepatocytes; rat hepatocytes, mean ± SD of three experiments): -99±26%
IC50 (rat primary hepatocytes; read-out: IC50 in rat primary hepatocytes (MMP, tier-one retest), existing Tox21 10K library stock solutions, 1-h treatment, Excel Table S1): 40 nM
IC50 (rat primary hepatocytes; read-out: Rat hepatocytes IC50 (MMP), 1 h treatment, fresh re-sourced stocks, mean±SD of three experiments): 310 ± 150 nM
EXT: mean difference in nematode size relative to plate controls ([7]; 0.005 µM): 0.5663
EXT: mean difference in nematode size relative to plate controls ([7]; 0.01 µM): 0.679
EXT: mean difference in nematode size relative to plate controls ([7]; 0.05 µM): 1.058
EXT: mean difference in nematode size relative to plate controls ([7]; 0.1 µM): 0.8774
EXT: mean difference in nematode size relative to plate controls ([7]; 0.5 µM): 1.355
larval growth effect at 0.5μM ([7]; 0.5μM, 48 h exposure): severe larval growth arrest
EXT: mean difference in nematode size relative to plate controls ([7]; 1 µM): 1.41
EXT: mean difference in nematode size relative to plate controls ([7]; 5 µM): 1.888
EXT: mean difference in nematode size relative to plate controls ([7]; 10 µM): 1.689
EXT: mean difference in nematode size relative to plate controls ([7]; 50 µM): 0.7889
effect on larval growth (in words) ([7]; 0.5–100μM, 48 h exposure): inhibited
LEC EXT: lowest effect concentration for extinction, a measure of nematode size ([7]; C. elegans larval growth, JT trend test, Bonferoni correction p<0.05): 0.005 µM
inhibitory effect at (concentration) on larval growth in the C. elegans assay ([7]; quoted in Discussion): 0.005 µM
Complex IV % inhibition (activity call) [8]: Inactive
ROS (HepG2) EC50 (HepG2 cells [9]): Inactive
p53 (HCT-116) EC50 [10]: Inactive
Complex V % inhibition (activity call) [11]: Inactive
LUM: mean difference in luminescence (ATP content) relative to plate controls ([12]; 0.005 µM): 0.1466
LUM: mean difference in luminescence (ATP content) relative to plate controls ([12]; 0.01 µM): 0.1001
LUM: mean difference in luminescence (ATP content) relative to plate controls ([12]; 0.05 µM): 0.1404
LUM: mean difference in luminescence (ATP content) relative to plate controls ([12]; 0.1 µM): 0.3228
LUM: mean difference in luminescence (ATP content) relative to plate controls ([12]; 0.5 µM): 1.055
LUM: mean difference in luminescence (ATP content) relative to plate controls ([12]; 1 µM): -0.08665
LUM: mean difference in luminescence (ATP content) relative to plate controls ([12]; 5 µM): 3.898
LUM: mean difference in luminescence (ATP content) relative to plate controls ([12]; 10 µM): 3.595
LUM: mean difference in luminescence (ATP content) relative to plate controls ([12]; 25 µM): 3.9673
LUM: mean difference in luminescence (ATP content) relative to plate controls ([12]; 50 µM): 3.294
LUM: mean difference in luminescence (ATP content) relative to plate controls ([12]; 75 µM): 3.822
LUM: mean difference in luminescence (ATP content) relative to plate controls ([12]; 100 µM): 4.216
effect on ATP content (in words) ([12]; 0.5–100μM, 24 h exposure): inhibited
LEC LUM: lowest effect concentration for luminescence, a measure of nematode ATP content ([12]; C. elegans ATP, JT trend test, Bonferoni correction p<0.05): 0.25 µM
effect on oxygen consumption rate, Seahorse (in words) (HepG2 cells [13]): inhibitory patterns similar to that of rotenone
Activity in oxygen consumption (HepG2 cells [13]; Seahorse XF24, HepG2 cells, 25 mM glucose, 1, 4, 16, and 64μM): Inhibitor
MMP assays efficacy (%) qHTS-HepG2 (HepG2 cells [14]): -91±3%
IC50 (HepG2 cells [14]; read-out: MMP assays IC50 (µM), qHTS-HepG2): 0.01 µM
I-ADP, % of control (O2 consumption rate) ([15]; 0.8 µM): 88 (40.4) % of control
I-sub, % of control (O2 consumption rate) ([15]; 0.8 µM): 113 (12.6) % of control
II-ADP, % of control (O2 consumption rate) ([15]; 0.8 µM): 81 (60.9) % of control
II-sub, % of control (O2 consumption rate) ([15]; 0.8 µM): 103 (21.3) % of control
I-ADP, % of control (O2 consumption rate) ([15]; 4 µM): 57 (26.1) % of control
I-sub, % of control (O2 consumption rate) ([15]; 4 µM): 108 (12.1) % of control
II-ADP, % of control (O2 consumption rate) ([15]; 4 µM): 56 (42.3) % of control
II-sub, % of control (O2 consumption rate) ([15]; 4 µM): 79 (16.2) % of control
I-ADP, % of control (O2 consumption rate) ([15]; 20 µM): 31 (14.2) % of control
I-sub, % of control (O2 consumption rate) ([15]; 20 µM): 69 (7.7) % of control
II-ADP, % of control (O2 consumption rate) ([15]; 20 µM): 35 (26.2) % of control
II-sub, % of control (O2 consumption rate) ([15]; 20 µM): 69 (14.3) % of control
I-ADP, % of control (O2 consumption rate) ([15]; 100 µM): 21 (9.7) % of control
I-sub, % of control (O2 consumption rate) ([15]; 100 µM): 76 (11.8) % of control
II-ADP, % of control (O2 consumption rate) ([15]; 100 µM): 11 (7.6) % of control
II-sub, % of control (O2 consumption rate) ([15]; 100 µM): 27 (8.5) % of control
effect on mitochondrial respiration (in words) ([15]; Clark-type oxygen electrode, concentrations up to 100μM): slightly milder inhibitory effects on both glutamate/malate-driven respiration and succinate-driven respiration
Potential Mechanism ([15]; mitochondrial respiration in isolated rat liver mitochondria, Clark type oxygen electrode, over tested concentrations): Inhibitor
IC50 (HepG2 cells [16]; 5 mM glucose, read-out: ATP (HepG2, glucose) IC50): 10700 ± 6390 nM
ATP (HepG2, glucose) (efficacy) (HepG2 cells [16]; 5 mM glucose, % of positive control): −107±6.73%
IC50 (HepG2 cells [16]; 10 mM galactose, read-out: ATP (HepG2, galactose) IC50): 5880 ± 2330 nM
ATP (HepG2, galactose) (efficacy) (HepG2 cells [16]; 10 mM galactose, % of positive control): −105±4.87%
